According to patent US20050096278A1, “Antibacterial agents” (priority 2003, published 2005):
Values after ≈ are worked out from the molar mass of the structure shown.

Experiments:
S pyogenes C203 = test: Antibacterial assay (standard microtitration), MIC; type: cell-based; conditions: Gram Positive Bacteria, Table 1B; for MIC: read-out: Minimum Inhibitory Concentrations, S pyogenes C203
Procedure: (§1) Test A—Antibacterial Assays
(§2) The compounds of the present invention were tested against an assortment of Gram-negative and Gram-positive organisms using standard microtitration techniques (Cohen et. al., Antimicrob., 1985;28:766; Heifetz, et. al., Antimicrob., 1974;6:124). The results of the evaluation are shown in Tables 1A and B. In the tables, “—” means no data.

S. aureus UC-76 = test: Antibacterial assay (standard microtitration), MIC; type: cell-based; conditions: Table 1B; for MIC: Staphylococcus aureus, UC76, Gram Positive Bacteria, read-out: Minimum Inhibitory Concentrations, S. aureus UC-76; for Minimum Inhibitory Concentrations, S. aureus UC-76: Gram Positive Bacteria
Procedure: as §1, §2

E. faecalis MGH-2 = test: Antibacterial assay (standard microtitration), MIC; type: cell-based; conditions: Gram Positive Bacteria, Table 1B; for MIC: Enterococcus faecalis, MGH2, read-out: Minimum Inhibitory Concentrations, E. faecalis MGH-2
Procedure: as §1, §2

M. catarrhalis BC-3531 = test: Antibacterial assay (standard microtitration), MIC; type: cell-based; conditions: Moraxella catarrhalis, BC3531; Gram Negative Bacteria; Table 1A; read-out: Minimum Inhibitory Concentrations, M. catarrhalis BC-3531
Procedure: as §1, §2

H. influenzae HI-3542 = test: Antibacterial assay (standard microtitration), MIC; type: cell-based; conditions: Gram Negative Bacteria, Table 1A; for MIC: Haemophilus influenzae, HI3542, read-out: Minimum Inhibitory Concentrations, H. influenzae HI-3542
Procedure: as §1, §2

E. coli MC4100 = test: Antibacterial assay (standard microtitration), MIC; type: cell-based; conditions: Gram Negative Bacteria, Table 1A; for MIC: Escherichia coli, MC4100, read-out: Minimum Inhibitory Concentrations, E. coli MC4100
Procedure: as §1, §2

Compound | MIC (S pyogenes C203) [µg/mL] | MIC (S. aureus UC-76) [µg/mL] | MIC (E. faecalis MGH-2) [µg/mL] | MIC (M. catarrhalis BC-3531) [µg/mL] | MIC (H. influenzae HI-3542) [µg/mL] | MIC (E. coli MC4100) [µg/mL] | other results
COc1c(N2CCC(CCO)CC2)c(F)cc2c(=O)c(C(=O)O)cn(C3CC3)c12 | 0.25 (≈ 0.618 µM) | 0.015 (≈ 0.0371 µM) | 0.125 (≈ 0.309 µM) | – | – | – | –
Cc1c(N2CCCC(O)C2)c(F)cc2c(=O)c(C(=O)O)cn(C3CC3)c12 (centres unmarked) [drawing 340] | – | – | – | 0.03 (≈ 0.0832 µM) | 0.015 (≈ 0.0416 µM) | 0.125 (≈ 0.347 µM) | –
COc1c(N2CCC(O)C(C)(C)C2)c(F)cc2c(=O)c(C(=O)O)cn(C3CC3)c12 (centres unmarked) [drawing 350] | 0.5 (≈ 1.24 µM) | 0.015 (≈ 0.0371 µM) | 0.25 (≈ 0.618 µM) | – | – | – | –
COc1c(N2CCC(O)(CO)CC2)c(F)cc2c(=O)c(C(=O)O)cn(C3CC3)c12 [drawing 328] | – | – | – | 0.125 (≈ 0.308 µM) | 0.015 (≈ 0.0369 µM) | 0.25 (≈ 0.615 µM) | –
Cc1c(N2CCCC(C)(O)C2)c(F)cc2c(=O)c(C(=O)O)cn(C3CC3)c12 (centres unmarked) [drawing 341] | – | – | – | 0.125 (≈ 0.334 µM) | 0.06 (≈ 0.16 µM) | 0.5 (≈ 1.34 µM) | –
Cc1c(N2CCC(O)C(C)(C)C2)c(F)cc2c(=O)c(C(=O)O)cn(C3CC3)c12 (centres unmarked) [drawing 330] | – | – | – | 0.5 (≈ 1.29 µM) | 0.125 (≈ 0.322 µM) | 2 (≈ 5.15 µM) | –
COc1c(N2CCC3(CC2)OCCO3)c(F)cc2c(=O)c(C(=O)O)cn(C3CC3)c12 [drawing 325] | – | – | – | 0.06 (≈ 0.143 µM) | 0.06 (≈ 0.143 µM) | 0.5 (≈ 1.19 µM) | –
COc1c(N2CCCC(C(O)CO)C2)c(F)cc2c(=O)c(C(=O)O)cn(C3CC3)c12 (centres unmarked) [drawing 334] | – | – | – | 0.25 (≈ 0.595 µM) | 0.125 (≈ 0.297 µM) | 1 (≈ 2.38 µM) | –
COc1c(N2CCC(O)C(C)C2)c(F)cc2c(=O)c(C(=O)O)cn(C3CC3)c12 (centres unmarked) [drawing 332] | – | – | – | 0.03 (≈ 0.0768 µM) | 0.03 (≈ 0.0768 µM) | 0.25 (≈ 0.64 µM) | –
COc1c(N2CCCC(O)C2)c(F)cc2c(=O)c(C(=O)O)cn(C3CC3)c12 (centres unmarked) [drawing 358] | 0.125 (≈ 0.332 µM) | 0.03 (≈ 0.0797 µM) | 0.002 (≈ 0.00531 µM) | – | – | – | –
COc1c(N2CCCC(O)(CO)C2)c(F)cc2c(=O)c(C(=O)O)cn(C3CC3)c12 (centres unmarked) [drawing 336] | – | – | – | 0.5 (≈ 1.23 µM) | 0.03 (≈ 0.0738 µM) | 1 (≈ 2.46 µM) | –
COc1c(N2CCC3(CC2)OCCO3)c(F)cc2c(=O)c(C(=O)O)cn(C3CC3)c12 [drawing 343] | 0.25 (≈ 0.597 µM) | 0.015 (≈ 0.0358 µM) | 0.25 (≈ 0.597 µM) | – | – | – | –
COc1c(N2CCC(O)C(CO)C2)c(F)cc2c(=O)c(C(=O)O)cn(C3CC3)c12 (centres unmarked) | – | – | – | – | – | – | melting point: 115 to 125 °C
COc1c(N2CCC(O)(CO)CC2)c(F)cc2c(=O)c(C(=O)O)cn(C3CC3)c12 [drawing 347] | 1 (≈ 2.46 µM) | 0.015 (≈ 0.0369 µM) | 1 (≈ 2.46 µM) | – | – | – | –
Cc1c(N2CCC(O)C(CO)C2)c(F)cc2c(=O)c(C(=O)O)cn(C3CC3)c12 (centres unmarked) | 0.25 (≈ 0.64 µM) | 0.015 (≈ 0.0384 µM) | 0.25 (≈ 0.64 µM) | – | – | – | –
Cc1c(N2CCC(CCO)CC2)c(F)cc2c(=O)c(C(=O)O)cn(C3CC3)c12 [drawing 345] | 0.06 (≈ 0.154 µM) | 0.004 (≈ 0.0103 µM) | 0.03 (≈ 0.0772 µM) | – | – | – | –
COc1c(N2CCC(CO)CC2)c(F)cc2c(=O)c(C(=O)O)cn(C3CC3)c12 [drawing 348] | 0.125 (≈ 0.32 µM) | 0.015 (≈ 0.0384 µM) | 0.125 (≈ 0.32 µM) | – | – | – | –
Cc1c(N2CCCC(C)(O)C2)c(F)cc2c(=O)c(C(=O)O)cn(C3CC3)c12 (centres unmarked) [drawing 360] | 0.03 (≈ 0.0801 µM) | – | 0.5 (≈ 1.34 µM) | – | – | – | –
COc1c(N2CCCC(C(O)CO)C2)c(F)cc2c(=O)c(C(=O)O)cn(C3CC3)c12 (centres unmarked) [drawing 353] | 2 (≈ 4.76 µM) | 1 (≈ 2.38 µM) | 8 (≈ 19 µM) | – | – | – | –
COc1c(N2CCC(C(O)CO)CC2)c(F)cc2c(=O)c(C(=O)O)cn(C3CC3)c12 (centres unmarked) | – | – | – | – | – | – | melting point: 200 to 204 °C
COc1c(N2CCCC(O)(CO)C2)c(F)cc2c(=O)c(C(=O)O)cn(C3CC3)c12 (centres unmarked) [drawing 355] | 2 (≈ 4.92 µM) | 0.06 (≈ 0.148 µM) | 1 (≈ 2.46 µM) | – | – | – | –

Compound | MIC (S pyogenes C203) [µg/mL] | MIC (S. aureus UC-76) [µg/mL] | MIC (E. faecalis MGH-2) [µg/mL] | MIC (M. catarrhalis BC-3531) [µg/mL] | MIC (H. influenzae HI-3542) [µg/mL] | MIC (E. coli MC4100) [µg/mL] | other results
COc1c(N2CCC(O)C(C)C2)c(F)cc2c(=O)c(C(=O)O)cn(C3CC3)c12 (centres unmarked) [drawing 351] | 0.25 (≈ 0.64 µM) | – | 0.125 (≈ 0.32 µM) | – | – | – | Minimum Inhibitory Concentrations, S. aureus UC-76 (S. aureus UC-76): 0.008 µg/mL
COc1c(N2CCC(O)C(CO)C2)c(F)cc2c(=O)c(C(=O)O)cn(C3CC3)c12 (centres unmarked) [drawing 324] | – | – | – | 0.125 (≈ 0.308 µM) | 0.015 (≈ 0.0369 µM) | 0.25 (≈ 0.615 µM) | –
COc1c(N2CCC(C(O)CO)CC2)c(F)cc2c(=O)c(C(=O)O)cn(C3CC3)c12 (centres unmarked) [drawing 327] | – | – | – | 0.06 (≈ 0.143 µM) | 0.03 (≈ 0.0714 µM) | 0.125 (≈ 0.297 µM) | –
COc1c(N2CCC(O)C(O)C2)c(F)cc2c(=O)c(C(=O)O)cn(C3CC3)c12 (centres unmarked) [drawing 338] | – | – | – | 0.125 (≈ 0.319 µM) | 0.008 (≈ 0.0204 µM) | 0.25 (≈ 0.637 µM) | –
COc1c(N2CCCC(CO)C2)c(F)cc2c(=O)c(C(=O)O)cn(C3CC3)c12 (centres unmarked) [drawing 335] | – | – | – | 0.06 (≈ 0.154 µM) | 0.03 (≈ 0.0768 µM) | 0.25 (≈ 0.64 µM) | –
COc1c(N2CCC(O)(c3ccccc3)CC2)c(F)cc2c(=O)c(C(=O)O)cn(C3CC3)c12 [drawing 352] | 2 (≈ 4.42 µM) | 0.25 (≈ 0.553 µM) | 32 (≈ 70.7 µM) | – | – | – | –
COc1c(N2CCCC(O)C2)c(F)cc2c(=O)c(C(=O)O)cn(C3CC3)c12 (centres unmarked) [drawing 339] | – | – | – | 0.03 (≈ 0.0797 µM) | 0.002 (≈ 0.00531 µM) | 0.125 (≈ 0.332 µM) | –
COc1c(N2CCC(O)C(C)(C)C2)c(F)cc2c(=O)c(C(=O)O)cn(C3CC3)c12 (centres unmarked) [drawing 331] | – | – | – | 0.125 (≈ 0.309 µM) | 0.125 (≈ 0.309 µM) | 0.25 (≈ 0.618 µM) | –
COc1c(N2CCC(O)C(C)C2)c(F)cc2c(=O)c(C(=O)O)cn(C3CC3)c12 (centres unmarked) [drawing 337] | – | – | – | – | – | – | Minimum Inhibitory Concentrations, H. influenzae HI-3542 (H. influenzae HI-3542): 0.03 µg/mL; Minimum Inhibitory Concentrations, E. coli MC4100 (E. coli MC4100): 0.25 µg/mL
COc1c(N2CCC(O)C(C)C2)c(F)cc2c(=O)c(C(=O)O)cn(C3CC3)c12 (centres unmarked) [drawing 356] | – | – | – | – | – | – | Minimum Inhibitory Concentrations, S pyogenes C203 (S pyogenes C203): 0.25 µg/mL; Minimum Inhibitory Concentrations, S. aureus UC-76 (S. aureus UC-76): 0.0008 µg/mL; Minimum Inhibitory Concentrations, E. faecalis MGH-2 (E. faecalis MGH-2): 0.125 µg/mL
Cc1c(N2CCC(O)C(C)(C)C2)c(F)cc2c(=O)c(C(=O)O)cn(C3CC3)c12 (centres unmarked) [drawing 349] | 8 (≈ 20.6 µM) | 0.25 (≈ 0.644 µM) | 8 (≈ 20.6 µM) | – | – | – | –
COc1c(N2CCC(O)C(O)C2)c(F)cc2c(=O)c(C(=O)O)cn(C3CC3)c12 (centres unmarked) [drawing 357] | 0.125 (≈ 0.319 µM) | 0.008 (≈ 0.0204 µM) | 0.125 (≈ 0.319 µM) | – | – | – | –
COc1c(N2CCC(C(O)CO)CC2)c(F)cc2c(=O)c(C(=O)O)cn(C3CC3)c12 (centres unmarked) [drawing 346] | 0.25 (≈ 0.595 µM) | 0.015 (≈ 0.0357 µM) | 0.25 (≈ 0.595 µM) | – | – | – | –
Cc1c(N2CCC(CCO)CC2)c(F)cc2c(=O)c(C(=O)O)cn(C3CC3)c12 [drawing 326] | – | – | – | 0.015 (≈ 0.0386 µM) | 0.03 (≈ 0.0772 µM) | 0.06 (≈ 0.154 µM) | –
COc1c(N2CCC(CO)CC2)c(F)cc2c(=O)c(C(=O)O)cn(C3CC3)c12 [drawing 329] | – | – | – | 0.015 (≈ 0.0384 µM) | 0.015 (≈ 0.0384 µM) | 0.125 (≈ 0.32 µM) | –
COc1c(N2CCC(O)(CO)CC2)c(F)cc2c(=O)c(C(=O)O)cn(C3CC3)c12 | – | – | – | – | – | – | melting point: 200 to 210 °C (dec.)
COc1c(N2CCCC(CO)C2)c(F)cc2c(=O)c(C(=O)O)cn(C3CC3)c12 (centres unmarked) [drawing 354] | 0.25 (≈ 0.64 µM) | 0.015 (≈ 0.0384 µM) | 0.125 (≈ 0.32 µM) | – | – | – | –
COc1c(N2CCC(C(O)CCO)CC2)c(F)cc2c(=O)c(C(=O)O)cn(C3CC3)c12 (centres unmarked) | – | – | – | – | – | – | melting point: 210 to 214 °C
COc1c(N2CCC(O)(c3ccccc3)CC2)c(F)cc2c(=O)c(C(=O)O)cn(C3CC3)c12 [drawing 333] | – | – | – | 1 (≈ 2.21 µM) | 2 (≈ 4.42 µM) | 32 (≈ 70.7 µM) | –
Cc1c(N2CCCC(O)C2)c(F)cc2c(=O)c(C(=O)O)cn(C3CC3)c12 (centres unmarked) [drawing 359] | 0.125 (≈ 0.347 µM) | 0.015 (≈ 0.0416 µM) | 0.125 (≈ 0.347 µM) | – | – | – | –
